Measurements: patent publication US6355799B1, “Substituted benzene compounds, process for their preparation, and herbicidal and defoliant compositions containing them” (ISK Americas Incorporated, priority 1997, dated 2002)

Key:
Type in all cases: in vivo
[1] = test system: ivyleaf morningglory (Ipomoea hederacea, IPOHE); experiment: Pre-emerge test, greenhouse herbicide activity screening; details: pre-emerge, rated 14 days after application, 0 = no damage, 100 = complete death
Summary of the method: (§1)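 Fourteen days after spraying, crop and weed injury was graded visually from 0, no effect, to 100, every plant dead. Test substances were dissolved in acetone and applied at 15–1000 g ai/ha with a flat-fan nozzle. Application was either pre-emergence, one day after sowing, or post-emergence at the 2–3 leaf stage.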

[2] = test system: green foxtail (Setaria viridis, SETVI); experiment: as above; details: pre-emerge, rated 14 days after application, 0 = no damage, 100 = complete death
Summary of the method: as §1

[3] = test system: velvetleaf (Abutilon theophrasti, ABUTH); experiment: as above; details: pre-emerge, rated 14 days after application, 0 = no damage, 100 = complete death
Summary of the method: as §1

[4] = test system: johnsongrass (Sorghum halepense, SORHA); experiment: as above; details: pre-emerge, rated 14 days after application, 0 = no damage, 100 = complete death
Summary of the method: as §1

[5] = test system: sicklepod (Cassia obtusifolia, CASOB); experiment: as above; details: pre-emerge, rated 14 days after application, 0 = no damage, 100 = complete death
Summary of the method: as §1

[6] = test system: barnyardgrass (Echinochloa crus-galli, ECHCG); experiment: as above; details: pre-emerge, rated 14 days after application, 0 = no damage, 100 = complete death
Summary of the method: as §1

[7] = test system: large crabgrass (Digitaria sanguinalis, DIGSA); experiment: as above; details: pre-emerge, rated 14 days after application, 0 = no damage, 100 = complete death
Summary of the method: as §1

[8] = test system: lambsquarters (Chenopodium album, CHEAL); experiment: as above; details: pre-emerge, rated 14 days after application, 0 = no damage, 100 = complete death
Summary of the method: as §1

[9] = test system: common ragweed (Ambrosia artemisizfolia L., AMBEL); experiment: as above; details: pre-emerge, rated 14 days after application, 0 = no damage, 100 = complete death
Summary of the method: as §1

[10] = test system: field corn (Zea mays L., var. Dekalb 535, CORN); experiment: Pre-emerge test, crop safety; details: pre-emerge, rated 14 days after application, 0 = no damage, 100 = complete death
Summary of the method: (§2)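 Applied at 15–1000 g ai/ha from acetone in 187 l/ha spray volume. Post-emergence applications included 0.25% v/v non-ionic surfactant and reached plants sown 8–21 days before. Pre-emergence applications were incorporated by surface watering. Efficacy or crop damage was rated on a 0–100 scale after 14 days.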

[11] = test system: upland rice (Oryza sp., var. Tebonnet, RICE); experiment: Pre-emerge test, crop safety; details: pre-emerge, rated 14 days after application, 0 = no damage, 100 = complete death
Summary of the method: as §2

[12] = test system: field corn (Zea mays L., var. Dekalb 535, CORN); experiment: Post-emerge test, crop safety; details: phytotoxicity rating 0-100 (0 no damage, 100 complete death), 14 days after application
Summary of the method: as §1

[13] = test system: upland rice (Oryza sp., var. Tebonnet, RICE); experiment: Post-emerge test, crop safety; details: phytotoxicity rating 0-100 (0 no damage, 100 complete death), 14 days after application
Summary of the method: as §1

[14] = test system: ivyleaf morningglory (Ipomoea hederacea, IPOHE); experiment: Post-emerge test, greenhouse herbicide activity screening; details: phytotoxicity rating 0-100 (0 no damage, 100 complete death), 14 days after application
Summary of the method: (§3)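 Herbicidal damage is scored 0 (none) to 100 (complete plant death) two weeks after a simulated field spray. Rates span 15–1000 g ai/ha, delivered in acetone at 187 l/ha. For post-emergence treatments, plants have 2–3 leaves and the spray carries 0.25% v/v non-ionic surfactant.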

[15] = test system: green foxtail (Setaria viridis, SETVI); experiment: as above; details: phytotoxicity rating 0-100 (0 no damage, 100 complete death), 14 days after application
Summary of the method: as §3

[16] = test system: velvetleaf (Abutilon theophrasti, ABUTH); experiment: as above; details: phytotoxicity rating 0-100 (0 no damage, 100 complete death), 14 days after application
Summary of the method: as §3

[17] = test system: johnsongrass (Sorghum halepense, SORHA); experiment: as above; details: phytotoxicity rating 0-100 (0 no damage, 100 complete death), 14 days after application
Summary of the method: as §3

[18] = test system: sicklepod (Cassia obtusifolia, CASOB); experiment: as above; details: phytotoxicity rating 0-100 (0 no damage, 100 complete death), 14 days after application
Summary of the method: as §3

[19] = test system: barnyardgrass (Echinochloa crus-galli, ECHCG); experiment: as above; details: phytotoxicity rating 0-100 (0 no damage, 100 complete death), 14 days after application
Summary of the method: as §3

[20] = test system: large crabgrass (Digitaria sanguinalis, DIGSA); experiment: as above; details: phytotoxicity rating 0-100 (0 no damage, 100 complete death), 14 days after application
Summary of the method: as §3

[21] = test system: redroot pigweed (Amaranthus retroflexus, AMARE); experiment: as above; details: phytotoxicity rating 0-100 (0 no damage, 100 complete death), 14 days after application
Summary of the method: as §3

[22] = test system: lambsquarters (Chenopodium album, CHEAL); experiment: as above; details: phytotoxicity rating 0-100 (0 no damage, 100 complete death), 14 days after application
Summary of the method: as §3

[23] = test system: common ragweed (Ambrosia artemisizfolia L., AMBEL); experiment: as above; details: phytotoxicity rating 0-100 (0 no damage, 100 complete death), 14 days after application
Summary of the method: as §3

[24] = test system: redroot pigweed (Amaranthus retroflexus, AMARE); experiment: Pre-emerge test, greenhouse herbicide activity screening; details: pre-emerge, rated 14 days after application, 0 = no damage, 100 = complete death
Summary of the method: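 Visual ratings on a 0-100 scale (0 no damage, 100 all plants dead) were taken at 14 days after treatment. Rates of 15-1000 g ai/ha in acetone, 187 l/ha, were sprayed onto soil one day after planting (pre-emerge) or onto 2-3 leaf plants with 0.25% v/v surfactant (post-emerge).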

COC(=O)C(=O)Nc1c(OC)c(Cl)cc(F)c1-n1c(=O)cc(C(F)(F)F)n(C)c1=O [2-15]
Pre-emerge Herbicidal Activity IPOHE (phytotoxicity rating, scale 0-100) ([1]; 63 g ai/ha): 20 | Pre-emerge Herbicidal Activity IPOHE (phytotoxicity rating, scale 0-100) ([1]; 250 g ai/ha): 30 | Pre-emerge Herbicidal Activity SETVI (phytotoxicity rating, scale 0-100) ([2]; 63 g ai/ha): 0 | Pre-emerge Herbicidal Activity SETVI (phytotoxicity rating, scale 0-100) ([2]; 250 g ai/ha): 0 | Pre-emerge Herbicidal Activity ABUTH (phytotoxicity rating, scale 0-100) ([3]; 63 g ai/ha): 20 | Pre-emerge Herbicidal Activity ABUTH (phytotoxicity rating, scale 0-100) ([3]; 250 g ai/ha): 90 | Pre-emerge Herbicidal Activity SORHA (phytotoxicity rating, scale 0-100) ([4]; 63 g ai/ha): 0 | Pre-emerge Herbicidal Activity SORHA (phytotoxicity rating, scale 0-100) ([4]; 250 g ai/ha): 0 | Pre-emerge Herbicidal Activity CASOB (phytotoxicity rating, scale 0-100) ([5]; 63 g ai/ha): 0 | Pre-emerge Herbicidal Activity CASOB (phytotoxicity rating, scale 0-100) ([5]; 250 g ai/ha): 0 | Pre-emerge Herbicidal Activity ECHCG (phytotoxicity rating, scale 0-100) ([6]; 63 g ai/ha): 0 | Pre-emerge Herbicidal Activity ECHCG (phytotoxicity rating, scale 0-100) ([6]; 250 g ai/ha): 0 | Pre-emerge Herbicidal Activity DIGSA (phytotoxicity rating, scale 0-100) ([7]; 63 g ai/ha): 0 | Pre-emerge Herbicidal Activity DIGSA (phytotoxicity rating, scale 0-100) ([7]; 250 g ai/ha): 0 | Pre-emerge Herbicidal Activity CHEAL (phytotoxicity rating, scale 0-100) ([8]; 63 g ai/ha): 60 | Pre-emerge Herbicidal Activity CHEAL (phytotoxicity rating, scale 0-100) ([8]; 250 g ai/ha): 40 | Pre-emerge Herbicidal Activity AMBEL (phytotoxicity rating, scale 0-100) ([9]; 63 g ai/ha): 0 | Pre-emerge Herbicidal Activity AMBEL (phytotoxicity rating, scale 0-100) ([9]; 250 g ai/ha): 0 | Pre-emerge crop damage CORN (phytotoxicity rating, scale 0-100) ([10]; 63 g ai/ha): 0 | Pre-emerge crop damage CORN (phytotoxicity rating, scale 0-100) ([10]; 250 g ai/ha): 0 | Pre-emerge crop damage RICE (phytotoxicity rating, scale 0-100) ([11]; 63 g ai/ha): 10 | Pre-emerge crop damage RICE (phytotoxicity rating, scale 0-100) ([11]; 250 g ai/ha): 0 | Post-emerge Herbicidal Activity CORN (crop damage) ([12]; 63 g ai/ha): 0 | Post-emerge Herbicidal Activity CORN (crop damage) ([12]; 250 g ai/ha): 0 | Post-emerge Herbicidal Activity RICE (crop damage) ([13]; 63 g ai/ha): 0 | Post-emerge Herbicidal Activity RICE (crop damage) ([13]; 250 g ai/ha): 0 | Post-emerge Herbicidal Activity IPOHE ([14]; 63 g ai/ha): 40 | Post-emerge Herbicidal Activity IPOHE ([14]; 250 g ai/ha): 90 | Post-emerge Herbicidal Activity SETVI ([15]; 63 g ai/ha): 0 | Post-emerge Herbicidal Activity SETVI ([15]; 250 g ai/ha): 0 | Post-emerge Herbicidal Activity ABUTH ([16]; 63 g ai/ha): 70 | Post-emerge Herbicidal Activity ABUTH ([16]; 250 g ai/ha): 90 | Post-emerge Herbicidal Activity SORHA ([17]; 63 g ai/ha): 0 | Post-emerge Herbicidal Activity SORHA ([17]; 250 g ai/ha): 0 | Post-emerge Herbicidal Activity CASOB ([18]; 63 g ai/ha): 10 | Post-emerge Herbicidal Activity CASOB ([18]; 250 g ai/ha): 10 | Post-emerge Herbicidal Activity ECHCG ([19]; 63 g ai/ha): 0 | Post-emerge Herbicidal Activity ECHCG ([19]; 250 g ai/ha): 0 | Post-emerge Herbicidal Activity DIGSA ([20]; 63 g ai/ha): 0 | Post-emerge Herbicidal Activity DIGSA ([20]; 250 g ai/ha): 0 | Post-emerge Herbicidal Activity AMARE ([21]; 63 g ai/ha): 0 | Post-emerge Herbicidal Activity AMARE ([21]; 250 g ai/ha): 20 | Post-emerge Herbicidal Activity CHEAL ([22]; 63 g ai/ha): 40 | Post-emerge Herbicidal Activity CHEAL ([22]; 250 g ai/ha): 60 | Post-emerge Herbicidal Activity AMBEL ([23]; 63 g ai/ha): 10 | Post-emerge Herbicidal Activity AMBEL ([23]; 250 g ai/ha): 40 | Pre-emerge Herbicidal Activity AMARE (phytotoxicity rating, scale 0-100) ([24]; 63 g ai/ha): 0 | Pre-emerge Herbicidal Activity AMARE (phytotoxicity rating, scale 0-100) ([24]; 250 g ai/ha): 80
